Measurements from ChEMBL document CHEMBL1201862, “PubChem BioAssay data set” (2004).
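Cells were grown in 96-well plates and exposed to each compound for 48 hours at five concentrations; endpoints were interpolated linearly between bracketing concentrations, or set to the highest concentration if not reached. Here, GI50 denotes the concentration required for 50% inhibition of growth.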 Activity calls are given as the source filed them. Cut-off read from the data, not from the text of the source: active = GI50 up to about 1.1 µM and inactive = higher.

Experiments:
Test in all cases: NCI tumour cell line growth inhibition, 48 h
HL-60 = tested on: HL-60
SNB-75 = tested on: SNB-75
CAKI-1 = tested on: CAKI-1
NCI-H226 = tested on: NCI-H226
A549 = tested on: A549
786-0 = tested on: 786-0
SF-539 = tested on: SF-539
KM12 = tested on: KM12
UACC-257 = tested on: UACC-257
SR = tested on: SR
HT-29 = tested on: HT-29
SF-295 = tested on: SF-295
U-251 = tested on: U-251
DU-145 = tested on: DU-145
K562 = tested on: K562
NCI-H460 = tested on: NCI-H460
SK-MEL-5 = tested on: SK-MEL-5
Hs-578T = tested on: Hs-578T
RPMI-8226 = tested on: RPMI-8226
Malme-3M = tested on: Malme-3M

Structure (SMILES)	GI50 (HL-60)	GI50 (SNB-75)	GI50 (CAKI-1)	GI50 (NCI-H226)	GI50 (A549)	GI50 (786-0)	GI50 (SF-539)	GI50 (KM12)	GI50 (UACC-257)	GI50 (SR)	GI50 (HT-29)	GI50 (SF-295)	GI50 (U-251)	GI50 (DU-145)	GI50 (K562)	GI50 (NCI-H460)	GI50 (SK-MEL-5)	GI50 (Hs-578T)	GI50 (RPMI-8226)	GI50 (Malme-3M)
CC1=C(C(=O)OCc2ccncc2)C(C2=C(C)SCCS2)C(C(=O)OCc2ccncc2)=C(C)N1	25.4 µM (inactive)	15.8 µM (inactive)	26.3 µM (inactive)	18.5 µM (inactive)	33.3 µM (inactive)	28.6 µM (inactive)	16.4 µM (inactive)	21.3 µM (inactive)	17.1 µM (inactive)	33.6 µM (inactive)	17.9 µM (inactive)	18.2 µM (inactive)	16.7 µM (inactive)	29.4 µM (inactive)	20 µM (inactive)	23.4 µM (inactive)	15.3 µM (inactive)	10.6 µM (inactive)	–	–
c1ccc(CSCCc2ccncc2)cc1	50.8 µM (inactive)	–	< 0.01 µM (active)	> 100 µM (inactive)	> 100 µM (inactive)	> 100 µM (inactive)	> 100 µM (inactive)	> 100 µM (inactive)	53 µM (inactive)	–	> 100 µM (inactive)	> 100 µM (inactive)	> 100 µM (inactive)	> 100 µM (inactive)	> 100 µM (inactive)	> 100 µM (inactive)	> 100 µM (inactive)	> 100 µM (inactive)	49.9 µM (inactive)	> 100 µM (inactive)
CN(C)C(=O)C(NCCO)c1ccccc1 (configuration not stated)	–	> 100 µM (inactive)	> 100 µM (inactive)	> 100 µM (inactive)	> 100 µM (inactive)	> 100 µM (inactive)	> 100 µM (inactive)	85.7 µM (inactive)	48.3 µM (inactive)	–	57.7 µM (inactive)	> 100 µM (inactive)	90.6 µM (inactive)	> 100 µM (inactive)	–	> 100 µM (inactive)	52.8 µM (inactive)	> 100 µM (inactive)	27.9 µM (inactive)	–
O=C1C(/N=N/c2ccc(-c3nc4ccccc4o3)cc2)NC(=S)N1c1ccccc1 (configuration not stated)	0.13 µM (active)	62.4 µM (inactive)	90.8 µM (inactive)	> 100 µM (inactive)	> 100 µM (inactive)	> 100 µM (inactive)	> 100 µM (inactive)	> 100 µM (inactive)	39.1 µM (inactive)	28.5 µM (inactive)	> 100 µM (inactive)	> 100 µM (inactive)	> 100 µM (inactive)	37.4 µM (inactive)	67.8 µM (inactive)	70.3 µM (inactive)	49.1 µM (inactive)	> 100 µM (inactive)	–	> 100 µM (inactive)
COc1cc(C2c3cc4c(cc3OC(N3CCOCC3)C2C)OCO4)ccc1O (configuration not stated)	3.72 µM (inactive)	7.64 µM (inactive)	31.2 µM (inactive)	–	13.4 µM (inactive)	18.4 µM (inactive)	11.3 µM (inactive)	7.83 µM (inactive)	40.7 µM (inactive)	5.66 µM (inactive)	23.4 µM (inactive)	4.31 µM (inactive)	14.5 µM (inactive)	28.7 µM (inactive)	4.35 µM (inactive)	12 µM (inactive)	9.53 µM (inactive)	6.55 µM (inactive)	4.22 µM (inactive)	10.9 µM (inactive)
COc1ccc2c(c1)[n+]([O-])c1cc(C#N)ccc1[n+]2[O-]	4.63 µM (inactive)	4.41 µM (inactive)	4.09 µM (inactive)	3.78 µM (inactive)	0.378 µM (active)	13.6 µM (inactive)	3.41 µM (inactive)	2.38 µM (inactive)	3.74 µM (inactive)	4.08 µM (inactive)	2.87 µM (inactive)	0.767 µM (active)	3.72 µM (inactive)	1.1 µM (active)	6.76 µM (inactive)	0.547 µM (active)	0.893 µM (active)	2.07 µM (inactive)	–	2.58 µM (inactive)
CC(OC(C)(C)C)[C@H](NC(=O)OCc1ccccc1)C(=O)NC(OCc1ccccc1)[C@H]1COC(C)(C)O1 (some centres not stated)	> 10 µM (inactive)	> 10 µM (inactive)	> 10 µM (inactive)	> 10 µM (inactive)	39.3 µM (inactive)	> 10 µM (inactive)	> 10 µM (inactive)	> 10 µM (inactive)	> 10 µM (inactive)	–	> 10 µM (inactive)	> 10 µM (inactive)	> 10 µM (inactive)	> 100 µM (inactive)	> 10 µM (inactive)	> 10 µM (inactive)	> 10 µM (inactive)	> 10 µM (inactive)	–	> 10 µM (inactive)
O=C(O)C(SC1=NC(=O)C2(NN1)c1ccccc1-c1ccccc12)SC1=NC(=O)C2(NN1)c1ccccc1-c1ccccc12	5.14 µM (inactive)	2.74 µM (inactive)	> 10 µM (inactive)	> 10 µM (inactive)	> 10 µM (inactive)	> 10 µM (inactive)	> 10 µM (inactive)	> 10 µM (inactive)	> 10 µM (inactive)	–	> 10 µM (inactive)	> 10 µM (inactive)	> 10 µM (inactive)	> 10 µM (inactive)	9.51 µM (inactive)	> 10 µM (inactive)	> 10 µM (inactive)	> 10 µM (inactive)	7.33 µM (inactive)	> 10 µM (inactive)
O=C(OCc1ccccc1)c1nc2ccccc2n1S(=O)(=O)c1ccccc1	> 100 µM (inactive)	> 100 µM (inactive)	> 100 µM (inactive)	> 100 µM (inactive)	> 100 µM (inactive)	> 100 µM (inactive)	> 100 µM (inactive)	> 100 µM (inactive)	> 100 µM (inactive)	–	> 100 µM (inactive)	> 100 µM (inactive)	> 100 µM (inactive)	> 100 µM (inactive)	> 100 µM (inactive)	> 100 µM (inactive)	80.4 µM (inactive)	> 100 µM (inactive)	> 100 µM (inactive)	88.9 µM (inactive)
O=C1C=C(NCCOCCO)C(=O)c2c(O)ccc(O)c21	15.3 µM (inactive)	61.7 µM (inactive)	43.3 µM (inactive)	> 100 µM (inactive)	28.1 µM (inactive)	37.4 µM (inactive)	24 µM (inactive)	30.1 µM (inactive)	20.8 µM (inactive)	–	20.4 µM (inactive)	47.4 µM (inactive)	30.5 µM (inactive)	99.3 µM (inactive)	27.9 µM (inactive)	29.2 µM (inactive)	13.2 µM (inactive)	34.4 µM (inactive)	22.7 µM (inactive)	11.9 µM (inactive)
N#Cc1ccc(OCc2ccc3nc(-c4ccccc4)c(Cl)nc3c2)cc1	> 100 µM (inactive)	> 100 µM (inactive)	> 100 µM (inactive)	–	> 100 µM (inactive)	54 µM (inactive)	> 100 µM (inactive)	> 100 µM (inactive)	> 100 µM (inactive)	> 100 µM (inactive)	> 100 µM (inactive)	> 100 µM (inactive)	72.1 µM (inactive)	> 100 µM (inactive)	–	> 100 µM (inactive)	> 100 µM (inactive)	> 100 µM (inactive)	> 100 µM (inactive)	> 100 µM (inactive)
COc1cccc([C@@H]2C/C(=N\NC(=O)C(=O)N[C@@H](C)c3ccccc3)c3ccccc3N2)c1	–	21.3 µM (inactive)	25.8 µM (inactive)	> 100 µM (inactive)	46.1 µM (inactive)	44.6 µM (inactive)	13.1 µM (inactive)	10.1 µM (inactive)	82 µM (inactive)	–	–	73.1 µM (inactive)	> 100 µM (inactive)	> 100 µM (inactive)	32.1 µM (inactive)	–	14.5 µM (inactive)	23.7 µM (inactive)	32.4 µM (inactive)	–
CC1=NNC(=O)C1C1C(=O)NN=C(c2c[nH]c3ccccc23)C1Br (configuration not stated)	37.3 µM (inactive)	13.1 µM (inactive)	62.4 µM (inactive)	35 µM (inactive)	41.8 µM (inactive)	> 100 µM (inactive)	50.2 µM (inactive)	16.6 µM (inactive)	> 100 µM (inactive)	–	35.3 µM (inactive)	17.7 µM (inactive)	38.3 µM (inactive)	> 100 µM (inactive)	31.7 µM (inactive)	38.7 µM (inactive)	37.8 µM (inactive)	28 µM (inactive)	40.7 µM (inactive)	30.3 µM (inactive)
C=CCn1c(=O)c2ccccc2[n+]2c(C)c(C(=O)OCC)sc12	> 100 µM (inactive)	–	> 100 µM (inactive)	> 100 µM (inactive)	> 100 µM (inactive)	> 100 µM (inactive)	> 100 µM (inactive)	> 100 µM (inactive)	> 100 µM (inactive)	> 100 µM (inactive)	> 100 µM (inactive)	42.7 µM (inactive)	90.2 µM (inactive)	> 100 µM (inactive)	> 100 µM (inactive)	> 100 µM (inactive)	> 100 µM (inactive)	> 100 µM (inactive)	> 100 µM (inactive)	–
C=C1C(=O)O[C@H]2C(=O)[C@H](C)CCC/C(C)=C/CC[C@@]3(C)O[C@@H]3C[C@@H]12	2.72 µM (inactive)	–	1.67 µM (inactive)	17.7 µM (inactive)	5.82 µM (inactive)	1.62 µM (inactive)	2.39 µM (inactive)	4.3 µM (inactive)	2.99 µM (inactive)	2.45 µM (inactive)	1.9 µM (inactive)	14 µM (inactive)	2.67 µM (inactive)	2.56 µM (inactive)	2.07 µM (inactive)	15.4 µM (inactive)	7.59 µM (inactive)	6.34 µM (inactive)	2.25 µM (inactive)	–
